Assay results from article PMC4184574, “Enantioselectivity in the cytochrome P450-dependent conversion of tegafur to 5-fluorouracil in human liver microsomes” (Pharmacology Research & Perspectives, 2013).

Target: T1, CYP2A6 (Homo sapiens, UniProt P11509)
T1 sequence (P11509 1-494): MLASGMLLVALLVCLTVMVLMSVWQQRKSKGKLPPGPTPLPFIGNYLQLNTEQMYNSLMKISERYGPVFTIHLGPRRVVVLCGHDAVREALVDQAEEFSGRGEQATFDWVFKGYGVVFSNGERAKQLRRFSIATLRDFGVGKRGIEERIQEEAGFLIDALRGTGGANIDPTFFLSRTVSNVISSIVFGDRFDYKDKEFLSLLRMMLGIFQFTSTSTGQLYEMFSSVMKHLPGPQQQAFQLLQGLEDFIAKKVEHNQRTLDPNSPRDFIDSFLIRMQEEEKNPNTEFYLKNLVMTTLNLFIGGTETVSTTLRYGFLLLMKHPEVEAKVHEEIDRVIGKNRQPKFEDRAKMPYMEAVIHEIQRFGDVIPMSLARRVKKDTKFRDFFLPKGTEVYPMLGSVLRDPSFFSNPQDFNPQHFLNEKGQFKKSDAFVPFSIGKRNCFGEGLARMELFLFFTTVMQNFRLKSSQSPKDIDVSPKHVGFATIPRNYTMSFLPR
Assay: 5-FU formation from FT enantiomers by cDNA-expressed CYP2A6 (kinetics, velocity, RAF contribution)
Details: for CYP contribution: CYP2A6, RAF method, 30 μmol/L
Text: Human hepatic 9000g supernatant (S9) and cytosolic fraction were purchased from XenoTech, LLC. (pooled preparations from 20 donors; Kansas City, KS). Human hepatic microsomes from five individuals (HG32, HH94, HH81, HH74, and HH31), a pooled preparation from 150 donors, and microsomes prepared from insect cell lines expressing CYP1A2, 2A6, 2B6, 2C8, 2C9, 2C19, 2D6, 2E1, and 3A4 were purchased from BD Gentest. Insect microsomes expressing only NADPH-P450 oxidoreductase and cytochrome b5 were also used as control. These enzymes were stored at −80°C until use.
Metabolic reaction by S9 and cytosol (each 2 mg protein/mL) was carried out in 100 mmol/L phosphate (pH 7.4) because TPase requires phosphate ions for catalyzing the reaction. In some cases, insect microsomes expressing recombinant CYP isoforms (20 pmol/mL) were added to the incubation mixtures in either 50, 100 mmol/L phosphate (pH 7.4) or 100 mmol/L Tris (pH 7.4), depending on supplier's recommendation. Microsomal protein concentrations of all cDNA-expressed CYPs were adjusted to 0.5 mg protein/mL by adding control microsomes expressing NADPH-P450 oxidoreductase and cytochrome b5. The reaction for the assay of FT metabolism was initiated by adding the substrate, following preincubation for 5 min at 37°C. After incubation at 37°C, the reaction was stopped by adding three volumes of ice-cold acetonitrile. The incubation times of microsomes, cytosol, and S9 were 15, 15, and 30 min, respectively. After centrifugation, the supernatant was collected and stored at −80°C until the determination of 5-FU. Because a small portion of FT is nonenzymatically converted to 5-FU, the content of 5-FU spontaneously formed was subtracted from total yield obtained after incubation to correct the activity. The spontaneous degradation of FT to 5-FU was evaluated using enzymes inactivated by heating them at 100°C for 5 min.
Concentration of 5-FU was determined using a LC/MS/MS system. The analytical system consisted of a HP1100 liquid chromatograph (Agilent Technologies, CA) coupled with an API4000 triple-quadrupole mass spectrometer (Applied Biosystems, CA) equipped with Turbo V source and ESI interface. Sample separation was performed using an Unison UK-Amino column (2.0 mm i.d. × 100 mm, 3 μm; Imtakt, Kyoto, Japan) at a flow rate of 0.2 mL/min at 40°C. The mobile phase consisted of 10 mmol/L ammonium acetate/acetonitrile 10:90 (v/v). […] For quantification of 5-FU, the calibration curves were linear over the range 2–1000 ng/mL.
Kinetic studies were performed using microsomes from five human livers (HG32, HH94, HH81, HH74, and HH31), cDNA-expressed CYP isoforms, or pooled human hepatic cytosol. In determining kinetic parameters, FT concentration ranged from 0.03 to 10 mmol/L. All reactions were performed in a linear range of 5-FU formation with respect to protein or CYP concentrations and incubation time.
Intrinsic clearance (CLint) was calculated as a ratio of V/S where V and S were the metabolite formation rate and the concentration of a probe substrate for CYP isoform, respectively, when the substrate concentration was well below the Km value. The RAF for each CYP isoform was calculated according to equation (3) (Venkatakrishnan et al. [2000]). [drawing 3] (3) n = 1A2, 2A6, 2C19, or 2E1.
The contribution of CYPn to the metabolism of R- and S-FT at their concentration of 30 μmol/L was subsequently calculated using equation (4). [drawing 4] (4) VCYPn = 5-FU formation rate in cDNA-expressed CYPn.

| Structure (SMILES) | CYP contribution [%] | CLint (cDNA-expressed CYP2A6) [nL min^−1 pmol^−1 CYP] | Vmax (cDNA-expressed CYP2A6) [pmol min^−1 pmol^−1 CYP] | Km (cDNA-expressed CYP2A6) [µM] |
| --- | --- | --- | --- | --- |
| O=c1[nH]c(=O)n([C@@H]2CCCO2)cc1F [S-FT] | 84.8 | 4.9 | 5.6 ± 0.3 | – |
| O=c1[nH]c(=O)n([C@H]2CCCO2)cc1F [R-FT] | 87.6 | 26 | 4.5 ± 0.1 | 170 ± 10 |
